Measurements reported in ChEMBL document CHEMBL1255229, “Novel antimicrobial peptides that exhibit activity against select agents and other drug resistant bacteria” (2010).
In brackets after ≈: the same amount, converted by molar mass. Starred links: 1 amine or outer side, 2 acyl side, 3 side chain; linkers in the order of their positions; H or OH if unused. Non-standard residues stand in square brackets, D forms with d. Residues, ends and D or L forms follow the SMILES beside them. ξ: configuration not given here. Pro(3ξ,4ξ-(CH2)4) = O=C(O)[C@H]1NCC2CCCCC21; Oic = O=C(O)[C@@H]1C[C@@H]2CCCC[C@@H]2N1; X1 = O=C([C@@H]1CN([*:1])C2CCCCC21)[*:2]; X2 = O=C([C@H]1CN([*:1])C2CCCCC21)[*:2]; Phe(4-F) = N[C@@H](Cc1ccc(F)cc1)C(=O)O; Tic = O=C(O)[C@@H]1Cc2ccccc2CN1; Orn = NCCC[C@H](N)C(=O)O; Dab = NCC[C@H](N)C(=O)O; Dap = NC[C@H](N)C(=O)O; Ahx = NCCCCCC(=O)O; βAla = NCCC(=O)O

How the values were obtained:
Assay type in all cases: functional
Acinetobacter baumannii [1] = experiment: Antimicrobial activity against Acinetobacter baumannii ATCC 19606 after 24 hrs; conditions: ATCC 19606 = CIP 70.34 = JCM 6841, 24 h
Acinetobacter baumannii [2] = experiment: Antimicrobial activity against Acinetobacter baumannii WRAIR after 24 hrs
Staphylococcus aureus = experiment: Antimicrobial activity against methicillin-resistant Staphylococcus aureus ATCC 33591 after 24 hrs; conditions: ATCC 33591, 24 h
Yersinia pestis = experiment: Antimicrobial activity against Yersinia pestis CO92 after 24 hrs; conditions: CO92, 24 h
Brucella melitensis = experiment: Antimicrobial activity against Brucella melitensis 16 M after 24 hrs
Brucella abortus = experiment: Antimicrobial activity against Brucella abortus 2308 after 24 hrs; conditions: Brucella abortus, 2308, 24 h
Brucella suis = experiment: Antimicrobial activity against Brucella suis ATCC 23445 after 24 hrs; conditions: ATCC 23445, 24 h
Bacillus anthracis = experiment: Antimicrobial activity against Bacillus anthracis Ames after 24 hrs
Francisella tularensis = experiment: Antimicrobial activity against Francisella tularensis SCHU-S4 after 24 hrs; conditions: SCHU-S4, 24 h
Burkholderia mallei = experiment: Antimicrobial activity against Burkholderia mallei ATCC 23444 after 24 hrs; conditions: ATCC 23444, 24 h
[3] = test system: Burkholderia pseudomallei; experiment: Antimicrobial activity against Burkholderia pseudomallei BURK003(1026b) after 24 hrs

Row | SMILES | MIC (Acinetobacter baumannii [1]) | MIC (Acinetobacter baumannii [2]) | MIC (Staphylococcus aureus) | MIC (Yersinia pestis) | MIC (Brucella melitensis) | MIC (Brucella abortus) | MIC (Brucella suis) | MIC (Bacillus anthracis) | MIC (Francisella tularensis) | MIC (Burkholderia mallei) | MIC [3]
1 | CC(=O)NCC(=O)N[C@@H](Cc1ccc(F)cc1)C(=O)N1Cc2ccccc2C[C@H]1C(=O)N1CC2CCCCC2[C@H]1C(=O)NCC(=O)N[C@@H](CCCCN)C(=O)N1Cc2ccccc2C[C@H]1C(=O)N1CC2CCCCC2[C@H]1C(=O)NCC(=O)N[C@@H](Cc1ccc(F)cc1)C(=O)N1Cc2ccccc2C[C@H]1C(=O)N1CC2CCCCC2[C@H]1C(=O)NCC(=O)N[C@@H](CCCCN)C(=O)N1Cc2ccccc2C[C@H]1C(=O)N[C@@H](CCCCN)C(=O)N[C@@H](CCCCN)C(=O)N[C@@H](CCCCN)C(=O)N[C@@H](CCCCN)C(N)=O (stereo partly drawn) (Ac-G[Phe(4-F)][Tic][Pro(3ξ,4ξ-(CH2)4)]GK[Tic][Pro(3ξ,4ξ-(CH2)4)]G[Phe(4-F)][Tic][Pro(3ξ,4ξ-(CH2)4)]GK[Tic]KKKK-NH2) | 3.1 µM (≈ 7.68 µg/mL) | 6.2 µM (≈ 15.4 µg/mL) | 101 µM (≈ 250 µg/mL) | 202 µM (≈ 500 µg/mL) | 202 µM (≈ 500 µg/mL) | 202 µM (≈ 500 µg/mL) | 202 µM (≈ 500 µg/mL) | 12.6 µM (≈ 31.2 µg/mL) | 202 µM (≈ 500 µg/mL) | 202 µM (≈ 500 µg/mL) | 202 µM (≈ 500 µg/mL)
2 | CC(=O)NCC(=O)N[C@@H](Cc1ccccc1)C(=O)N1C[C@@H](C(=O)N2C[C@H](C(=O)NCC(=O)N[C@@H](CCCCN)C(=O)N3C[C@@H](C(=O)N4C[C@@H](C(=O)NCC(=O)N[C@@H](Cc5ccccc5)C(=O)N5C[C@@H](C(=O)N6C[C@@H](C(=O)NCC(=O)N[C@@H](CCCCN)C(=O)N7Cc8ccccc8C[C@H]7C(=O)N[C@@H](CCCCN)C(=O)N[C@@H](CCCCN)C(=O)N[C@@H](CCCCN)C(=O)N[C@@H](CCCCN)C(N)=O)C7CCCCC76)C6CCCCC65)C5CCCCC54)C4CCCCC43)C3CCCCC32)C2CCCCC21 (stereo partly drawn) (Ac-GF[X1][X2]GK[X1][X1]GF[X1][X1]GK[Tic]KKKK-NH2) | 3.2 µM (≈ 7.73 µg/mL) | 3.2 µM (≈ 7.73 µg/mL) | 207 µM (≈ 500 µg/mL) | 207 µM (≈ 500 µg/mL) | 207 µM (≈ 500 µg/mL) | 207 µM (≈ 500 µg/mL) | 207 µM (≈ 500 µg/mL) | 26 µM (≈ 62.8 µg/mL) | 104 µM (≈ 251 µg/mL) | 207 µM (≈ 500 µg/mL) | 207 µM (≈ 500 µg/mL)
3 | CC(=O)NCC(=O)N[C@@H](Cc1ccccc1)C(=O)N1Cc2ccccc2C[C@H]1C(=O)N1C[C@@H](C(=O)NCC(=O)N[C@@H](CCCCN)C(=O)N2Cc3ccccc3C[C@H]2C(=O)N2C[C@@H](C(=O)NCC(=O)N[C@@H](Cc3ccccc3)C(=O)N3Cc4ccccc4C[C@H]3C(=O)N3C[C@@H](C(=O)NCC(=O)N[C@@H](CCCCN)C(=O)N4Cc5ccccc5C[C@H]4C(=O)N[C@@H](CCCN)C(=O)N[C@@H](CCCN)C(=O)N[C@@H](CCCN)C(=O)N[C@@H](CCCN)C(N)=O)C4CCCCC43)C3CCCCC32)C2CCCCC21 (stereo partly drawn) (Ac-GF[Tic][X1]GK[Tic][X1]GF[Tic][X1]GK[Tic][Orn][Orn][Orn][Orn]-NH2) | 6.5 µM (≈ 15.5 µg/mL) | 6.5 µM (≈ 15.5 µg/mL) | 52.4 µM (≈ 125 µg/mL) | 26.2 µM (≈ 62.5 µg/mL) | 104 µM (≈ 248 µg/mL) | 209 µM (≈ 498 µg/mL) | 13 µM (≈ 31 µg/mL) | 0.81 µM (≈ 1.93 µg/mL) | 105 µM (≈ 250 µg/mL) | 209 µM (≈ 498 µg/mL) | 209 µM (≈ 498 µg/mL)
4 | CC(=O)NCC(=O)N[C@@H](Cc1ccccc1)C(=O)N1Cc2ccccc2C[C@H]1C(=O)N1C[C@@H](C(=O)NCC(=O)N[C@@H](CCCCN)C(=O)N2Cc3ccccc3C[C@H]2C(=O)N2C[C@@H](C(=O)NCC(=O)N[C@@H](Cc3ccccc3)C(=O)N3Cc4ccccc4C[C@H]3C(=O)N3C[C@@H](C(=O)NCC(=O)N[C@@H](CCCCN)C(=O)N4Cc5ccccc5C[C@H]4C(=O)NCCC(=O)N[C@@H](CCCCN)C(=O)N[C@@H](CCCCN)C(=O)N[C@@H](CCCCN)C(=O)N[C@@H](CCCCN)C(N)=O)C4CCCCC43)C3CCCCC32)C2CCCCC21 (stereo partly drawn) (Ac-GF[Tic][X1]GK[Tic][X1]GF[Tic][X1]GK[Tic][βAla]KKKK-NH2) | 6.2 µM (≈ 15.6 µg/mL) | 6.2 µM (≈ 15.6 µg/mL) | 199 µM (≈ 500 µg/mL) | 199 µM (≈ 500 µg/mL) | 199 µM (≈ 500 µg/mL) | 199 µM (≈ 500 µg/mL) | 199 µM (≈ 500 µg/mL) | 12.4 µM (≈ 31.2 µg/mL) | 199 µM (≈ 500 µg/mL) | 199 µM (≈ 500 µg/mL) | 199 µM (≈ 500 µg/mL)
5 | CC(=O)NCC(=O)N[C@@H](Cc1ccccc1)C(=O)N1Cc2ccccc2C[C@H]1C(=O)N1C[C@@H](C(=O)NCC(=O)N[C@@H](CCCCN)C(=O)N2Cc3ccccc3C[C@H]2C(=O)N2C[C@@H](C(=O)NCC(=O)N[C@@H](Cc3ccccc3)C(=O)N3Cc4ccccc4C[C@H]3C(=O)N3C[C@@H](C(=O)NCC(=O)N[C@@H](CCCCN)C(=O)N4Cc5ccccc5C[C@H]4C(=O)NCCCCCC(=O)N[C@@H](CCCCN)C(=O)N[C@@H](CCCCN)C(=O)N[C@@H](CCCCN)C(=O)N[C@@H](CCCCN)C(N)=O)C4CCCCC43)C3CCCCC32)C2CCCCC21 (stereo partly drawn) (Ac-GF[Tic][X1]GK[Tic][X1]GF[Tic][X1]GK[Tic][Ahx]KKKK-NH2) | 3 µM (≈ 7.66 µg/mL) | 6.1 µM (≈ 15.6 µg/mL) | 196 µM (≈ 501 µg/mL) | 48.9 µM (≈ 125 µg/mL) | 196 µM (≈ 501 µg/mL) | 196 µM (≈ 501 µg/mL) | 196 µM (≈ 501 µg/mL) | 48.9 µM (≈ 125 µg/mL) | 196 µM (≈ 501 µg/mL) | 196 µM (≈ 501 µg/mL) | 196 µM (≈ 501 µg/mL)
6 | CC(=O)NCC(=O)N[C@@H](Cc1ccccc1)C(=O)N1Cc2ccccc2C[C@H]1C(=O)N1C[C@@H](C(=O)NCC(=O)N[C@@H](CCN)C(=O)N2Cc3ccccc3C[C@H]2C(=O)N2C[C@@H](C(=O)NCC(=O)N[C@@H](Cc3ccccc3)C(=O)N3Cc4ccccc4C[C@H]3C(=O)N3C[C@@H](C(=O)NCC(=O)N[C@@H](CCN)C(=O)N4Cc5ccccc5C[C@H]4C(=O)N[C@@H](CCN)C(=O)N[C@@H](CCN)C(=O)N[C@@H](CCN)C(=O)N[C@@H](CCN)C(N)=O)C4CCCCC43)C3CCCCC32)C2CCCCC21 (stereo partly drawn) (Ac-GF[Tic][X1]G[Dab][Tic][X1]GF[Tic][X1]G[Dab][Tic][Dab][Dab][Dab][Dab]-NH2) | 3.4 µM (≈ 7.73 µg/mL) | 3.4 µM (≈ 7.73 µg/mL) | 220 µM (≈ 500 µg/mL) | 220 µM (≈ 500 µg/mL) | 220 µM (≈ 500 µg/mL) | 220 µM (≈ 500 µg/mL) | 220 µM (≈ 500 µg/mL) | 6.8 µM (≈ 15.5 µg/mL) | 220 µM (≈ 500 µg/mL) | 220 µM (≈ 500 µg/mL) | 220 µM (≈ 500 µg/mL)
7 | CC(=O)NCC(=O)N[C@@H](Cc1ccccc1)C(=O)N1Cc2ccccc2C[C@H]1C(=O)N1[C@H](C(=O)NCC(=O)N[C@@H](CN)C(=O)N2Cc3ccccc3C[C@H]2C(=O)N2[C@H](C(=O)NCC(=O)N[C@@H](Cc3ccccc3)C(=O)N3Cc4ccccc4C[C@H]3C(=O)N3[C@H](C(=O)NCC(=O)N[C@@H](CN)C(=O)N4Cc5ccccc5C[C@H]4C(=O)N[C@@H](CN)C(=O)N[C@@H](CN)C(=O)N[C@@H](CN)C(=O)N[C@@H](CN)C(N)=O)C[C@@H]4CCCC[C@@H]43)C[C@@H]3CCCC[C@@H]32)C[C@@H]2CCCC[C@@H]21 (Ac-GF[Tic][Oic]G[Dap][Tic][Oic]GF[Tic][Oic]G[Dap][Tic][Dap][Dap][Dap][Dap]-NH2) | 3.6 µM (≈ 7.88 µg/mL) | 3.6 µM (≈ 7.88 µg/mL) | 114 µM (≈ 249 µg/mL) | 228 µM (≈ 499 µg/mL) | 228 µM (≈ 499 µg/mL) | 228 µM (≈ 499 µg/mL) | 228 µM (≈ 499 µg/mL) | 14.8 µM (≈ 32.4 µg/mL) | 228 µM (≈ 499 µg/mL) | 228 µM (≈ 499 µg/mL) | 228 µM (≈ 499 µg/mL)
8 | CC(=O)NCCCCCC(=O)N[C@@H](Cc1ccccc1)C(=O)N1Cc2ccccc2C[C@H]1C(=O)N1CC2CCCCC2[C@H]1C(=O)NCCCCCC(=O)N[C@@H](CCCCN)C(=O)N1Cc2ccccc2C[C@H]1C(=O)N1CC2CCCCC2[C@H]1C(=O)NCCCCCC(=O)N[C@@H](Cc1ccccc1)C(=O)N1Cc2ccccc2C[C@H]1C(=O)N1CC2CCCCC2[C@H]1C(=O)NCCCCCC(=O)N[C@@H](CCCCN)C(=O)N1Cc2ccccc2C[C@H]1C(=O)N[C@@H](CCCCN)C(=O)N[C@@H](CCCCN)C(=O)N[C@@H](CCCCN)C(=O)N[C@@H](CCCCN)C(N)=O (stereo partly drawn) (Ac-[Ahx]F[Tic][Pro(3ξ,4ξ-(CH2)4)][Ahx]K[Tic][Pro(3ξ,4ξ-(CH2)4)][Ahx]F[Tic][Pro(3ξ,4ξ-(CH2)4)][Ahx]K[Tic]KKKK-NH2) | 5.9 µM (≈ 15.7 µg/mL) | 2.9 µM (≈ 7.73 µg/mL) | 187 µM (≈ 498 µg/mL) | 23.4 µM (≈ 62.4 µg/mL) | 93 µM (≈ 248 µg/mL) | 12 µM (≈ 32 µg/mL) | 47 µM (≈ 125 µg/mL) | 1.5 µM (≈ 4 µg/mL) | 23.4 µM (≈ 62.4 µg/mL) | 187 µM (≈ 498 µg/mL) | 187 µM (≈ 498 µg/mL)
